Results as given in US10517952B2, “Nucleophile-triggered degradable materials and methods of making and using the same” (GEORGIA TECH RESEARCH CORPORATION, priority 2014, dated 2019).

Legend:
[1] = Gelation of 4-PEG-SH with OND linkers, gelation time by inversion test; format: physicochemical
Method: PEG-OND hydrogels were prepared by mixing tetravalent thiol-terminated PEG (4-PEG-SH, Mw˜2,500 Da for each arm) at 3.5 weight percent and multivalent OND linkers at equimolar concentration of thiol and electrophile in phosphate buffer containing 7% DMSO by volume (FIG. 42). The reactions were mixed briefly and the gel was allowed to cure at temperature or 37° C. Gelation time was recorded as the point at which the sample no longer flowed upon inversion of the reaction vessel.
Trial gelations were performed by premixing a solution of linker 7a with four-armed thiol-terminated poly(ethylene glycol) (4-PEG-SH. Mn=10,000) in neutral water containing 17% DMSO by volume. The overall concentration of PEG macromer was varied from 0.4 wt % to 8.3 wt % while maintaining an equimolar ratio of thiol to electrophile. Under these conditions, no gels formed on standing at room temperature for five minutes.
Based on empirical observations made in these trials, subsequent gels were prepared at room temperature from 3.5 wt % 4-PEG-SH solutions in phosphate buffers containing 7% DMSO at equimolar concentrations of thiol and OND electrophile. Mixtures were mixed briefly with a vortex mixer, and the reaction vial was periodically tilted or inverted. Gelation time was recorded when the sample no longer flowed and was self-supporting. […] Gelation time at 37° C. was determined by pre-warming 4-PEG-SH macromer and OND stock solutions in a 37° C. water bath. Gel components were combined and mixed briefly by pipetting, and the sample was held in the water bath. Gelation time was determined by the inversion test, as described above.
The labeled protein solutions prepared as described in the previous section were diluted three-fold with pH 7.4 100 mM phosphate buffer and used to dissolve the 4-PEG-SH macromer at 3.76 wt %. This solution was used in an identical manner as pure 4-PEG-SH solution for the purpose of forming PEG-OND hydrogels (FIG. 45). All samples formed self-supporting hydrogels within 1 min after mixing, as determined by the inversion test.

[2] = Oscillatory rheology of PEG-OND hydrogels; format: physicochemical
Method: Oscillatory rheology was used to assess the viscoelastic properties of selected PEG-OND hydrogels. […] The truncated cone was then brought in contact with the bis-EONB/4-PEG-SH mixture before setting of the gel by positioning the tool at the measuring position. The sample was inspected for spillovers and trimmed as required. A preliminary preshearing step consisting of 30 seconds at 0.1% strain and ω=0.01 rad/s was performed to ensure good contact with the gel sample. The elastic (storage) and viscous (loss) moduli, G′ and G″, respectively, were then measured as a function of time for a constant strain of 1% and an angular frequency of 1 rad/sec. The ability to store energy is described by G′, while the amount of energy dissipated is related with G″. It was observed that the sample experienced a rapid transformation from an initial state in which G′ was not much larger than G″ to a state in which G′ was clearly predominant, as shown in FIG. 5; this is consistent with gelation. The observed transformation happened in the first few minutes after preparation, even when the hydrogel continued to rigidify for up to 2-3 hours.
The linear regime of this sample was determined by performing an oscillatory strain sweep at 37° C. The frequency sweep shown in the main text was thus performed in the linear region.
[…] In both experiments, G′>>G″.

[3] = Equilibrium swelling, gel fraction and Mc (Flory-Rehner) of PEG-OND hydrogels; format: physicochemical; conditions: for Mc (apparent molecular weight between elastic crosslinks): calculated with the Flory-Rehner equation from swelling results; for Gel Fraction: mass of dry residue post-swelling/input mass of OND and 4-PEG-SH; for Equilibrium Swelling Ratio: mass post-swelling/mass pre-swelling, deionized water, 4° C., 24 hours, n = 3 gels
Method: The swelling of the PEG-OND hydrogels in deionized water was measured at 4° C. to prevent significant fragmentation during the experiment. […] An independent experiment measuring soluble fraction thiol content yielded results complementing those obtained gravimetrically (Table S3, and related discussion below). With the knowledge that small molecules can readily permeate swollen PEG-OND hydrogels (see below), detecting and modifying residual thiols in gels prepared from divalent linkers 7a and 8 by swelling in the presence of a fluorogenic OND derivative was attempted (FIG. 15, and related discussion below).
200 μL gels were prepared in pH 7.4 100 mM phosphate buffered saline containing 7% DMSO with 3.5 wt % 4-PEG-SH and the corresponding bis-, tris-, and tetra-ONDs to provide a 1:1 thiol to electrophile ratio, and allowed to cure for 20 minutes at room temperature. The mass of the gels after curing was recorded (Meq) before suspending in 5.5 mL of water. The hydrogels were stored at 4° C. during swelling to prevent significant degradation of the network during the experiment. The increase in mass of the gels was monitored periodically by decanting and blotting the gel gently with a kimwipe to remove excess water before weighing. After 24 hours swelling, when swelling had stabilized, the mass of the gel was recorded (Meq). The equilibrium mass swelling ratio was then determined using the following relationship:
After weighing equilibrium-swelled gels to determine equilibrium mass swelling ratio, the gels were freeze-dried and the residual mass was weighed (Mres). It is expected that buffer salts present in the sample when it was formed were removed by the multiple changes of swelling solvent (pure water). The mass of the remaining residue was compared to the input mass (Min) of 4-PEG-SH macromer and OND-based linker. The ratio of the residual mass and the input mass provides the fraction of material by mass incorporated into the hydrogel network (gel fraction), as shown in the following equation: […]
The apparent molecular weight between elastically-productive crosslinks (Mc) was determined from equilibrium swelling data, collected as described in section VII.1 and applying a modified form of the Flory-Rehner equation for networks formed under dilute conditions:
[formula] where Mn is the number average molecular weight for the polymeric macromer (10,000 g/mol), v is the specific volume of the polymer ([…] for PEG) V1 is the molar volume of solvent used for swelling ([…] for water), χ is the polymer-interaction parameter (0.43 for PEG-H2O and assumed constant for the described experiments). V2, and V2, are the volume fraction of polymer in the equilibrium swollen gel and the relaxed gel after curing, respectively, and are calculated as follows:
[formula] where qw is the weight swelling ratio after equilibrium swelling, qF is the weight swelling ratio after curing, ρp is the density of the polymer (1.12 g/cm^3 for PEG), ρwater=ρcure solvent is the density of swelling solvent and solvent during gel formation (1.00 g/cm^3 for water). The weight swelling ratios qw and qF are determined from data gathered in equilibrium swelling experiments using the following relationships:
[formula] where ms is the mass of the gel after equilibrium swelling, mc is the mass of the gel after curing, and md is the mass of the dried gel, or input mass of polymer and crosslinkers.
Using the formulae above, masses of hydrogel samples recorded after equilibrium swelling, curing, and drying were applied to estimate the apparent molecular weight between crosslinks, which are summarized in Table 1 of the main text. The experimentally observed Mc values for gels formed using divalent OND linkers was lower than theoretical ideal value Mc,ideal. This can be explained by the fact that the Mc,ideal values calculated for these gels (entries 1-5 of Table S1) are greater than the entanglement molecular weight for polyethylene glycol (˜4,400 g/mol). […]

[4] = Calculation of hydrogel mesh size from equilibrium swelling data; format: physicochemical; conditions: for Calculated mesh size: equilibrium-swollen gels
Method: Using the calculated molecular weight between crosslinks, Mc, and the method previously described by Canal and Peppas, the hydrogel mesh size was calculated. First, the root-mean-square end-to-end distance of the polymer chains in the network, (r0^2)^1/2, was calculated as follows: (r0^2)^1/2=lCn^1/2n^1/2 (Equation S10) where l is the average bond length in the polymer (0.146 nm for PEG) and Cn is the characteristic ratio of the polymer (4.0 for PEG). The average number of bonds between crosslinks, n is calculated using the following equation:
[formula] where Mc is the average molecular weight between crosslinks, calculated as described in the previous section, and Mr is the molecular weight of the repeating unit for the PEG macromer (44 g/mol). Finally, the mesh size, ξ, is calculated using the following relationship: ξ=v2,s^−1/3(r0^2)^1/2 (Equation S12) where v2, is the partial volume of polymer in the equilibrium swollen hydrogel, and is calculated using the experimentally determined equilibrium weight swelling ratios.

[5] = Degradation of neat PEG-OND hydrogels (inversion test, time-lapse photography); format: physicochemical; conditions: neat gel; for Time gel is stable / collapses (inversion test): no swelling buffer
Method: Degradation rates of the PEG-OND hydrogels in the absence of swelling buffer varied with temperature and with the identity of OND used to form the gel. […] In comparison, gels formed using 7b were stable for more than 60 hours at 37° C., and approximately 13 hours at 50° C.
Three 500 μL 3.5 wt % hydrogels were formed with bis-ONDs 7a and 7b, and bis-EONB 8, respectively, in 2 mL vials with caps. The sealed vials were incubated in an oil bath maintained at 50° C. The samples were periodically removed from heat and the vials were inverted to determine if the gel was still intact, or whether the sample was a free-flowing liquid, as described in the main text. The gel formed between 4-PEG-SH and bis-EONB 8 in FIG. 9 was removed from heat after 5 days, and stored at room temperature in a sealed vial. The hydrogel is still intact at the time of writing (5 days at 50° C. followed by >1 year at room temperature). The inversion test was routinely used in all stability experiments to verify hydrogel integrity during incubation.
In order to observe reverse gelation upon prolonged heating of neat hydrogels, time-lapse photography was carried out. Briefly, 600 μL hydrogels comprised of 3.5 wt % 4-PEG-SH+bis-OND/EONB (7a, 7b, and 8, respectively) in pH 7.4 100 mM potassium phosphate buffer containing 7% DMSO (v/v) were formed in glass culture tubes and allowed to set for 15 minutes. A glass bead (˜160 mg, stained with blue Sharpie-brand marker to improve visibility) was placed carefully on top of each gel, and a drop of silicon oil was added to prevent evaporation at the surface of the gels. The tubes were sealed with lab parafilm and incubated in a 50° C. oil bath. Photos were collected every 2 minutes for ˜22 hours using Chronolapse software (v.1.0.4) and a Creative Labs webcam. Photographs were compiled in chronological order using iMovie software, with each photo occupying one 0.1 s frame. The resulting video is available as S1 Video, mentioned above.

Structure (SMILES)	Gelation time ([1]; buffer pH 8.0, room temperature) [min]	Gel formation ([1]; pH 6.5-7.4)	Gel formation ([1]; pH 7.4)	Gel stability ([2]; gel formed at pH 8.0, 4° C.)	Time to revert to the liquid state (crossover of G′ and G″) ([2]; gel formed at pH 8.0, room temperature) [min]	Storage modulus G′ versus loss modulus G″ ([2]; pH 8.0, 4° C., strain and frequency sweeps)	Mc (apparent molecular weight between elastic crosslinks) [3] [g/mol]	Gel Fraction [3]	Equilibrium Swelling Ratio [3]	Calculated mesh size [4] [nm]	melting point [°C]	Gel integrity on extended heating (inversion test) ([5]; 50° C.)	Gel stability by time-lapse photography, gel supporting a glass bead ([5]; heating (50° C.))	Time gel is stable / collapses (inversion test) ([5]; 37° C.)	Time gel is stable / collapses (inversion test) ([5]; 50° C.)	Average mesh size ([4]; average for equilibrium swelled hydrogels from linkers 7a, 7b and 8) [nm]
COC(=O)C1=C(C(=O)OC)C2(CNC(=O)CCCC(=O)NCC34C=CC(C)(O3)C(C(=O)OC)=C4C(=O)OC)C=CC1(C)O2 [Linker 7c, Tetramethyl 4,4′-((glutaroylbis(azanediyl))bis(methylene))bis(1-methyl-7-oxabicy-clo[2.2.1]hepta-2,5-diene-2,3-dicarboxylate)]	≤ 1.5	formed only viscous solutions	did not form self-supporting gels	fairly stable	≤ 30	G′>>G″										
CCOC(=O)C1=C(C(F)(F)F)C2C=CC1(CNC(=O)CCCC(=O)NCC13C=CC(O1)C(C(=O)OC)=C3C(=O)OC)O2 (stereo not drawn) [Linker 10, Dimethyl 1-((5-(((2-(ethoxycarbonyl)-3-(trifluoromethyl)-7-oxabicyclo[2.2.1]hepta-2,5-dien-1-yl)methyl)amino)-5-oxopentanamido)methyl)-7-oxabicyclo[2.2.1]hepta-2,5-diene-2,3-dicarboxylate]							4112 ± 94	0.98 ± 0.04	1.87 ± 0.12	15.1 ± 1.3	93 to 97					
CCOC(=O)C1=C(C(F)(F)F)C2C=CC1(CNC(=O)CCCC(=O)NCC13C=CC(O1)C(C(F)(F)F)=C3C(=O)OCC)O2 [Linker 7b, Diethyl 1,1′-((glutaroylbis(azanediyl))bis(methylene))bis(3-(trifluoromethyl)-7-oxabicyclo[2.2.1]hepta-2,5-diene-2-carboxylate)]							3698 ± 16	0.96 ± 0.02	1.40 ± 0.02	13.1 ± 0.1	166 to 169	collapsed	more stable than those made with 7a	more than 60 hours	approximately 13 hours	14.0±1.0
